Measurements: patent US20250154686A1, “COMPOUND LIBRARY” (CHUGAI SEIYAKU KABUSHIKI KAISHA, priority 2021, published 2025)

Legend:
[1] = target: T1, Bcl-2 protein (Recombinant Human Bcl-2 Protein) (Homo sapiens, UniProt P10415); test: AS-MS evaluation of binding of the mixture libraries of Examples 8 and 9 to Bcl-2, ASMS ratio (%), Example 11; conditions: for AS-MS(%) N1 / AS-MS(%) N2 / AS-MS(%) N3 / AS-MS(%) N4: ASMS ratio, mixtures obtained from Example 9, 10 uM Bcl-2 protein; for AS-MS(%) N1: replicate N1; for AS-MS(%) N2: replicate N2; for AS-MS(%) N3: replicate N3 (additional day); for AS-MS(%) N4: replicate N4 (additional day); for binding to Bcl-2 detected by AS-MS: positive controls added to the mixtures of Examples 8 and 9, final compound concentration 100 nM
T1 construct: purchased Novus Biologicals NBP2-34889
Procedure: DMSO solutions (prepared into approximately 5 mM based on calculation from the average molecular weight of each mixture) of the mixtures of each Example shown in Table 11-1-1 were respectively dispensed to 8 wells of MICROPLATE, 96-WELL, PP, V-BOTTOM (Greiner Bio-One International GmbH, 651201). 400 nL each from the 8 wells of the mixtures obtained from Example 8 was dispensed into 3 designated wells while 200 nL each from the 8 wells of the mixtures obtained from Example 9 was dispensed into 3 designated wells, using LABCYTE ECHO® 555 acoustic dispensing system (Beckman Coulter, Inc.). 200 nL each of two types of 10 μM positive controls (B2Q045-01 and B2Q048-01) was dispensed to the mixtures obtained from Example 8. Likewise, 100 nL each of two types of 20 μM positive controls and 400 nL of a DMSO solution by backfill was dispensed to the mixtures obtained from Example 9. Further, Bcl-2 protein (Novus Biologicals, NBP2-34889, Recombinant Human Bcl-2 Protein, Lot E60145051) (19.2 μL) prepared at 5 µM (final protein concentration) for the mixtures obtained from Example 8 and 10 µM (final protein concentration) for the mixtures obtained from Example 9, in advance using a Tris-HCl buffer (25 mM Tris-HCl, pH 7.4, 150 mM NaCl, 0.025% Tween-20, and 1 mM DTT) was added to the well containing the dispensed 1000 compounds or 500 compounds (final compound concentration: 100 nM), and the plate was incubated at 23° C. for 1 hour in the dark. Subsequently, 200 μL of an assay buffer (25 mM Tris-HCl, pH 7.4, 150 mM NaCl, 0.025% Tween-20, and 1 mM DTT) was centrifuged three times at 2000×G at 4° C. for 2 minutes using 96-well MacroSpin column, P-2 Material (Harvard Bioscience, Inc., 74-5655) that had been allowed to swell to condition the 96-well MacroSpin column. Subsequently, 20 μL of the sample thus incubated was added to the 96-well MacroSpin column, P-2 Material after the completion of conditioning, and SEC treatment was performed by centrifugation at 2000×G for 2 minutes. 32 μL of a 1:1 mixed solution of acetonitrile and methanol (LC/MS grade, FUJIFILM Wako Pure Chemical Corp.) was added to a flow-through liquid from SEC, and the mixture was centrifuged at 1800×G at 4° C. for 5 minutes. The supernatant was used as analysis sample ASMS (A). By a similar operation, a sample prepared at 500 compounds/well or 1000 compounds/well and supplemented with only a Tris-HCl buffer containing no Bcl-2 protein was incubated under the same conditions as above, and the same organic solvent as above was added thereto without 96-well MacroSpin column treatment. A supernatant obtained by a centrifugation operation was used as STD (B). Next, by a similar operation, a sample prepared at 1000 compounds/well or 500 compounds/well and supplemented with only a Tris-HCl buffer containing no Bcl-2 protein was incubated under the same conditions as above and treated with 96-well MacroSpin column in the same manner as above, and the same organic solvent as above was added thereto. A supernatant obtained by a centrifugation operation was used as BK (C). These samples were measured by reverse-phase LC/MS.
Then, the samples A, B and C were analyzed for the 1000 compounds or 500 compounds using TraceFinder 5.1 (Thermo Fisher Scientific Inc.) and CHANCE Software (in-house), and an ASMS ratio (%) was calculated according to the following expression.
The mixtures obtained from Example 8 were tested at the number of data of 2 (N1 and N2) in order to ensure reproducibility. The mixtures obtained from Example 9 were tested at the total number of data 4 (N1,N2, N3, and N4) involving the number of data of 2/day (N1 and N2) and data obtained on additional days.

Human Bcl-2 protein = target: T2, Human Bcl-2 protein (Homo sapiens, UniProt P10415); test: Evaluation of binding of compound to Bcl-2 by surface plasmon resonance (SPR)-2, Example 13; conditions: for Kd: Biacore T200, biotinylated Bcl-2 immobilized on Sensor Chip SA, 15° C., read-out: Equilibrium dissociation constant KD; for equilibrium dissociation constant KD compared with B2Q045-01 (KD=1.20 μM) or B2Q048-01 (KD=0.480 μM): Biacore T200, 15° C.
T2 construct: purchased Novus Biologicals
Procedure: A surface plasmon resonance method was used in order to analyze the binding affinity of the compounds synthesized in Example 12 for Bcl-2, which are shown in Table 13-1. The apparatus used was Biacore T200 (GE Healthcare Japan Corp.), and the running buffer used was HBS (10 mM HEPES-NaOH and 150 mM NaCl, pH 7.4) supplemented with 1 mM DTT, 3 mM EDTA, 0.01% Tween 20 and 4% DMSO. Human Bcl-2 protein (Novus Biologicals) was biotinylated using EZ-Link NHS-PEG4-Biotin (Thermo Fisher scientific Inc.) and immobilized on the surface of Sensor Chip SA (Cytiva). Then, compound solutions having a plurality of concentrations and the running buffer (blank) were added to the Bcl-2-immobilized surface to obtain the binding response of the compounds. Measurement was performed at 15° C.
The obtained sensorgrams were treated with Biacore T200 Evaluation Software, and the equilibrium dissociation constant KD of each compound for Bcl-2 was determined as shown in the following Table 13-2.

T2 sequence (P10415 whole entry): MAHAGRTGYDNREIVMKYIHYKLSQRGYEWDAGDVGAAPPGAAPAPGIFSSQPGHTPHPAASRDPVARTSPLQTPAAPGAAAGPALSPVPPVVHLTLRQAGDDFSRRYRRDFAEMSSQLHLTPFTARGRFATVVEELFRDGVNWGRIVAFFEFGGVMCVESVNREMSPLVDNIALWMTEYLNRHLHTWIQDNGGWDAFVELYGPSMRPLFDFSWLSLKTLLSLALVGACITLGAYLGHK
T1 sequence (P10415 whole entry): as above

Structure (SMILES) | AS-MS(%) N1 [1] [%] | AS-MS(%) N2 [1] [%] | AS-MS(%) N3 [1] [%] | AS-MS(%) N4 [1] [%] | Kd (Human Bcl-2 protein) [nM] | equilibrium dissociation constant KD compared with B2Q045-01 (KD=1.20 μM) or B2Q048-01 (KD=0.480 μM) (Human Bcl-2 protein) | binding to Bcl-2 detected by AS-MS [1]
CC(C(=O)Nc1ccccc1)c1cc(O)cc(N2CCN(c3ccc(C(=O)NS(=O)(=O)c4ccc(NCCSc5ccccc5)c([N+](=O)[O-])c4)cc3)CC2)c1 (centres unmarked) [2-2-d1E03-1-0417] | 34.2 | 33.3 | 44.4 | 38.0 | 7910 | – | –
CC(C(=O)Nc1ccc(F)cc1)c1cc(O)cc(N2CCN(c3ccc(C(=O)NS(=O)(=O)c4ccc(NCCSc5ccccc5)c([N+](=O)[O-])c4)cc3)CC2)c1 (centres unmarked) [2-2-d1E03-1-0454] | 34.7 | 33.4 | 39.2 | 38.2 | 15200 | – | –
CC(C(=O)Nc1nc2ccccc2s1)c1cc(O)cc(N2CCN(c3ccc(C(=O)NS(=O)(=O)c4ccc(NCCSc5ccccc5)c([N+](=O)[O-])c4)cc3)CC2)c1 (centres unmarked) [2-2-d1E03-1-0495] | 28.9 | 38.1 | 35.6 | 39.3 | 5340 | – | –
CC(C(=O)Nc1ccccc1)c1cc(O)cc(N2CCN(c3ccc(C(=O)NS(=O)(=O)c4ccc(N[C@H](CCN5CCOCC5)CSc5ccccc5)c([N+](=O)[O-])c4)cc3)CC2)c1 (some centres unmarked) [2-2-d1E04-1-0417] | 70.3 | 77.8 | 72.8 | 71.8 | 582 | smaller equilibrium dissociation constant KD | –
Cc1ccc(NC(=O)C(C)c2cc(O)cc(N3CCN(c4ccc(C(=O)NS(=O)(=O)c5ccc(N[C@H](CCN6CCOCC6)CSc6ccccc6)c([N+](=O)[O-])c5)cc4)CC3)c2)cc1 (some centres unmarked) [2-2-d1E04-1-0446] | 57.8 | 68.3 | 60.9 | 58.1 | 775 | smaller equilibrium dissociation constant KD | –
CC(C(=O)Nc1ccc(F)cc1)c1cc(O)cc(N2CCN(c3ccc(C(=O)NS(=O)(=O)c4ccc(N[C@H](CCN5CCOCC5)CSc5ccccc5)c([N+](=O)[O-])c4)cc3)CC2)c1 (some centres unmarked) [2-2-d1E04-1-0454] | 72.6 | 87.8 | 78.5 | 74.6 | 788 | smaller equilibrium dissociation constant KD | –
CC(C(=O)Nc1nc2ccccc2s1)c1cc(O)cc(N2CCN(c3ccc(C(=O)NS(=O)(=O)c4ccc(N[C@H](CCN5CCOCC5)CSc5ccccc5)c([N+](=O)[O-])c4)cc3)CC2)c1 (some centres unmarked) [2-2-d1E04-1-0495] | 59.4 | 93.2 | 85.8 | 69.0 | 162 | smaller equilibrium dissociation constant KD | –
CC(C(=O)Nc1ccc(C(F)(F)F)cc1)c1cc(O)cc(N2CCN(c3ccc(C(=O)NS(=O)(=O)c4ccc(N[C@H](CCN5CCOCC5)CSc5ccccc5)c([N+](=O)[O-])c4)cc3)CC2)c1 (some centres unmarked) [2-2-d1E04-1-0498] | 45.5 | 61.4 | 52.7 | 51.0 | 2510 | – | –
CCOc1cc(C(C)C(=O)Nc2ccccc2)cc(N2CCN(c3ccc(C(=O)NS(=O)(=O)c4ccc(N[C@H](CCN5CCOCC5)CSc5ccccc5)c([N+](=O)[O-])c4)cc3)CC2)c1 (some centres unmarked) [2-2-d1E04-2-0417] | 43.8 | 48.8 | 53.8 | 65.5 | 846 | smaller equilibrium dissociation constant KD | –
CCOc1cc(C(C)C(=O)Nc2ccc(C)cc2)cc(N2CCN(c3ccc(C(=O)NS(=O)(=O)c4ccc(N[C@H](CCN5CCOCC5)CSc5ccccc5)c([N+](=O)[O-])c4)cc3)CC2)c1 (some centres unmarked) [2-2-d1E04-2-0446] | 62.1 | 45.0 | 44.0 | 46.2 | 1330 | – | –
CCOc1cc(C(C)C(=O)Nc2ccc(F)cc2)cc(N2CCN(c3ccc(C(=O)NS(=O)(=O)c4ccc(N[C@H](CCN5CCOCC5)CSc5ccccc5)c([N+](=O)[O-])c4)cc3)CC2)c1 (some centres unmarked) [2-2-d1E04-2-0454] | 36.4 | 42.2 | 58.2 | 62.7 | 1060 | smaller equilibrium dissociation constant KD | –
CCOc1cc(N2CCN(c3ccc(C(=O)NS(=O)(=O)c4ccc(N[C@H](CCN5CCOCC5)CSc5ccccc5)c([N+](=O)[O-])c4)cc3)CC2)cc2c1CCCC2C(=O)Nc1ccccc1 (some centres unmarked) [2-2-d1E04-2-0466] | 53.4 | 45.9 | 33.3 | 36.8 | 2450 | – | –
CCOc1cc(C(C)C(=O)Nc2nc3ccccc3s2)cc(N2CCN(c3ccc(C(=O)NS(=O)(=O)c4ccc(N[C@H](CCN5CCOCC5)CSc5ccccc5)c([N+](=O)[O-])c4)cc3)CC2)c1 (some centres unmarked) [2-2-d1E04-2-0495] | 52.7 | 137.5 | 56.0 | 50.3 | 706 | smaller equilibrium dissociation constant KD | –
CCOc1cccc(-c2ccccc2CN2CCN(c3ccc(C(=O)NS(=O)(=O)c4ccc(NCCSc5ccccc5)c([N+](=O)[O-])c4)cc3)CC2)c1 [Compound B2Q045-01, 4-[4-[[2-(3-ethoxyphenyl)phenyl]methyl]piperazin-1-yl]-N-[3-nitro-4-(2-phenylsulfanylethylamino)phenyl]sulfonylbenzamide] | – | – | – | – | – | – | binding to Bcl-2 was detected
CCOc1cncc(-c2ccccc2CN2CCN(c3ccc(C(=O)NS(=O)(=O)c4ccc(NCCSc5ccccc5)c([N+](=O)[O-])c4)cc3)CC2)c1 [Compound B2Q046-01, 4-[4-[[2-(5-ethoxypyridin-3-yl)phenyl]methyl]piperazin-1-yl]-N-[3-nitro-4-(2-phenylsulfanylethylamino)phenyl]sulfonylbenzamide] | – | – | – | – | – | – | binding to Bcl-2 was detected
